Measured values reported in patent publication US11628221B2, “Peptide linker and combination for prodrugs activated by prostate-specific antigen” (priority 2017, dated 2023).
Read-outs that look alike come from different tables or passages of the source. Numbered stars: 1 amine (or outer) side, 2 acyl side, 3 side chain; on linkers, the order of the positions; unused ones are H or OH. Square brackets hold non-standard residues; d marks the D form. Peptide text beside a SMILES is read from it. * marks the point of attachment. Doxorubicin(3'-N) = COc1cccc2c1C(=O)c1c(O)c3c(c(O)c1C2=O)C[C@@](O)(C(=O)CO)C[C@@H]3O[C@H]1C[C@H](N*)[C@H](O)[C@H](C)O1; Glutaryl = O=C(CCCC(=O)[*:2])[*:1]; Hyp = O=C(O)[C@@H]1C[C@@H](O)CN1; Chg = N[C@H](C(=O)O)C1CCCCC1; X1 = O=C(O)CCCNC(=O)CC(=O)*

Key:
[1] = molecular target: human PSA (Homo sapiens, UniProt P07288); assay: Hydrolysis of doxorubicin prodrugs by PSA (PSA enzyme assay, LC-MS/MS prodrug disappearance); conditions: for % of prodrug at 60 min: prodrug 1 μM incubated with human PSA 1 μM, 50 mM Tris buffer pH 8, 37° C.
Description: (§3) For doxorubicin conjugates, peptide solution concentrations were determined by measuring the UV absorbance at 484 and 254 nm (20 μM for doxorubicin and 50 μM for phosphoramide mustard conjugates, respectively) of solutions prepared (based on weight) in water from 10 mM DMSO stock solutions. Using the extinction coefficients of doxorubicin at 484 nm (10,800 M-1·cm-1), peptide concentrations were calculated and adjusted accordingly to prepare 100 μM solutions in 50 mM Tris buffer, pH 8 containing 2 mM CaCl2 and 0.1% Tween 20. […] Peptide solutions were prepared in Tris buffer pH 8 at a concentration of 1.11 μM from 1 mM DMSO stock solutions, and warmed up to 37° C. Reactions were initiated at 37° C. with the addition of 5 μL aliquots of a 10 μM solution of human PSA to 45 μL aliquots of the 1.11 μM peptide solutions in eppendorf vials (total volume 50 μL, final PSA concentration 1 μM), and time points recorded over a period of 3 h. Reactions were terminated at 0, 10, 20, 30, 60, 120, 180 and 360 min by quenching 2 μL aliquots of incubates with 20 μL of chilled 50% ACN containing 0.1 μM internal standard (IS) and 0.1% formic acid (FA) pre-added to eppendorf vials. Samples were centrifuged at 3000 RPM for 15 min and the supernatants analyzed by LC-MS/MS in SRM mode as previously described. The fraction of prodrug remaining at each time point was calculated by dividing the prodrug/IS ratio by the 0-h prodrug/IS area ratio and half-life determined from prodrug disappearance rate.
(§4) Substrate disappearance was monitored by LC-MS/MS analysis using SRM. The percentage of prodrug remaining at any given time point was computed by taking the ratio of its peak area response and that of the 0-h time point.

[2] = test system: DU145 cells; assay: Prodrug cytotoxicity in non-PSA-secreting DU145 cells (MTT assay), selectivity; format: cell-based, human; conditions: LNCaP versus non-PSA-secreting DU145 cells, 72 h
Description: (§1) Monolayer cultures of PSA-secreting LNCaP and non-PSA-secreting DU145 human prostate carcinoma cells were conducted in growth medium in a CO2 incubator under a humidified atmosphere at 37° C. for 3 weeks prior to initiating cytotoxicity experiments. During cell growth, media were changed every 3 days and trypsinization carried out at 80% confluence with a 1:4 split for subsequent cultures. Cells were grown on 96-well plates for 48 h at initial concentrations of 5000 cells/well. At the end of the 48-h period, the growth medium was replaced by serum-free medium RPMI 1640 medium containing L-glutamine (2 mM), 2% TCM, penicillin G (100 units/mL) and streptomycin sulfate (100 units/mL), and prodrugs added to wells at concentrations ranging from 0.07 to 100 μM. The plates were incubated at 37° C. for 72 h under a humidified CO2 atmosphere, and cell viability determined using the MTT assay. Briefly, 10 μL aliquots of a 12 mM MTT solution were added to wells and the plates incubated in a CO2 incubator under a humidified atmosphere at 37° C. for 4 h. Well contents were then solubilized with 1% SDS (100 μL/well) for 12 h, and OD570 values measured on a Dynatech MR5000 plate reader. Cell viability was computed as a percentage of control growth, and IC50 values determined as the concentration at which cell growth is inhibited by 50%.
(§2) To assess cytotoxicity and tumor selectivity, all prodrugs were incubated in cultured cell lines secreting (LNCaP) or lacking (DU145) PSA for a period of 72 h. Doxorubicin was used as a positive control and cell viability determined at the end of the incubation period using an MTT assay. It was anticipated that peptide prodrugs would be activated extracellularly in LNCaP, but not DU145 cells, by the proteolytic action of PSA releasing doxorubicin that would ultimately lead to cell death.

[3] = test system: LNCaP cells; assay: cells; conditions: for IC50: read-out: LNCaP IC50
Description: as §1, §2

[4] = molecular target: PSA (prostate-specific antigen) (Homo sapiens, UniProt P07288); assay: Hydrolysis of doxorubicin prodrugs by PSA (PSA enzyme assay, LC-MS/MS prodrug disappearance); conditions: human, pH 8
Description: as §3, §4

[5] = test system: tumor cells; conditions: cited from earlier work
[6] = 72 h incubation, MTT assay, PSA-secreting LNCaP cells

Sequence of human PSA (P07288 25-261): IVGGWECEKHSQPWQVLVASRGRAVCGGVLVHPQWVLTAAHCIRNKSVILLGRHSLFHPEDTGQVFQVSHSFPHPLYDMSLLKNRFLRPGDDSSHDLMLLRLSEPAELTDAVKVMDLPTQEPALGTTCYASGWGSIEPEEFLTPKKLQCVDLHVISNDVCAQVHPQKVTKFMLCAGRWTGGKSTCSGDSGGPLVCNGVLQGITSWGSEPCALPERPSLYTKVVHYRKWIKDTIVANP
Sequence of PSA (prostate-specific antigen) (P07288 25-261): as above

Row | Compound | % of prodrug at 60 min [1] | Selectivity against DU145 [2] | IC50 [3, 6] | half-life at 1 μM [4] | cytotoxicity against PSA-secreting LNCaP cells (in words) ([3]; 72 h, MTT assay) | also measured
1 | COc1cccc2c1C(=O)c1c(O)c3c(c(O)c1C2=O)C[C@@](O)(C(=O)CO)C[C@@H]3O[C@H]1C[C@H](NC(=O)[C@H](CC(C)C)NC(=O)[C@H](CO)NC(=O)[C@H](CCC(N)=O)NC(=O)[C@@H](NC(=O)[C@H](CO)NC(=O)[C@H](C)NC(=O)[C@@H]2C[C@@H](O)CN2C(=O)CCCC(=O)O)C2CCCCC2)[C@H](O)[C@H](C)O1 [Prodrug 1, Glutaryl-Hyp-Ala-Ser-Chg-Gln-Ser-Leu-Dox] (Glutaryl-[Hyp]AS[Chg]QSL-{Doxorubicin(3'-N)}) | 13% | 560 | 180 nM | – | – | –
2 | COc1cccc2c1C(=O)c1c(O)c3c(c(O)c1C2=O)C[C@@](O)(C(=O)CO)C[C@@H]3O[C@H]1C[C@H](NC(=O)[C@H](CC(C)C)NC(=O)[C@H](CO)NC(=O)[C@H](CCC(N)=O)NC(=O)[C@@H](NC(=O)[C@H](CO)NC(=O)[C@H](C)NC(=O)CC(=O)NCCCC(=O)O)C2CCCCC2)[C@H](O)[C@H](C)O1 [Prodrug 3, GABA←mGly-Ala-Ser-Chg-Gln-Ser-Leu-Dox] (X1-AS[Chg]QSL-{Doxorubicin(3'-N)}) | – | – | – | 22 min | most cytotoxic prodrug | –
3 | COc1cccc2c1C(=O)c1c(O)c3c(c(O)c1C2=O)C[C@@](O)(C(=O)COC(=O)C(C)(C)CONC(=O)[C@H](CCC(N)=O)NC(=O)[C@@H](NC(=O)[C@H](CO)NC(=O)[C@H](C)NC(=O)CC(=O)NCCCC(=O)O)C1CCCCC1)C[C@@H]3O[C@H]1C[C@H](N)[C@H](O)[C@H](C)O1 [Prodrug 4, GABA←mGly-Ala-Ser-Chg-Gln-NH—O—CH2—C(Me)2C(O)-14-O-Dox] | – | – | – | 67 min | comparable to that of L-377,202 | cytotoxin released by the prodrug ([1]; PSA-mediated hydrolysis, LC-MS with accurate mass (FIG. 10)): free doxorubicin
4 | COc1cccc2c1C(=O)c1c(O)c3c(c(O)c1C2=O)C[C@@](O)(C(=O)CO)C[C@@H]3O[C@H]1C[C@H](NC(=O)[C@@H](N)CC(C)C)[C@H](O)[C@H](C)O1 [Leu-Doxorubicin] | – | – | – | – | – | fold less cytotoxic (than doxorubicin) ([5]; Wong et al. (2001)): 10 fold
5 | COc1cccc2c1C(=O)c1c(O)c3c(c(O)c1C2=O)C[C@@](O)(C(=O)CO)C[C@@H]3O[C@H]1C[C@H](N)[C@H](O)[C@H](C)O1 [Dox, Doxorubicin] | – | 1 | – | – | – | times more potent than Leu-Doxorubicin at killing tumor cells [5]: 10 times; IC50 ([3]; Homo sapiens, LNCaP, 72 h): < 70 nM
6 | COc1cccc2c1C(=O)c1c(O)c3c(c(O)c1C2=O)C[C@@](O)(C(=O)CO)C[C@@H]3O[C@H]1C[C@H](NC(=O)[C@H](CC(C)C)NC(=O)[C@H](CO)NC(=O)[C@H](CCC(N)=O)NC(=O)[C@@H](NC(=O)[C@H](CO)NC(=O)[C@H](C)NC(=O)[C@H](CO)NC(=O)CCCC(=O)O)C2CCCCC2)[C@H](O)[C@H](C)O1 [Prodrug 2, Glutaryl-Ser-Ala-Ser-Chg-Gln-Ser-Leu-Dox] (Glutaryl-SAS[Chg]QSL-{Doxorubicin(3'-N)}) | 12% | 370 | 270 nM | – | – | –
